The text below walks through data of ChEMBL document CHEMBL1201862, “PubChem BioAssay data set” (2004).

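Cells were grown in 96-well plates and exposed to each compound for 48 hours at five concentrations; endpoints were interpolated linearly between bracketing concentrations, or set to the highest concentration if not reached. Here, GI50 denotes the concentration required for 50% inhibition of growth.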 The source made the active and inactive calls. Cut-off read from the data, not from the text of the source: active = GI50 up to about 1.1 µM and inactive = higher. Non-standard residues stand in square brackets, D forms with d. Residues, ends and D or L forms follow the SMILES beside them. ξ: configuration not given here. *: point of attachment. ξF = NC(Cc1ccccc1)C(=O)O; Cbz = O=C(OCc1ccccc1)*

Test systems include A549; NCI/ADR-RES; Hs-578T; UO-31; NCI-H226; COLO 205; NCI-H23; SF-268; UACC-62; HL-60; SW-620; MCF7; PC-3; HCC 2998; OVCAR-8; A498; SK-MEL-2; KM12; SF-539; HOP-92.
Holding throughout (test): inhibition of tumour cell growth, NCI panel, 48 h

Consider `[O-][n+]1onc2c1/C(=N/O)CCC2`, for which the GI50 in the assay with A549, in the assay with NCI/ADR-RES, in the assay with Hs-578T, with UO-31, with NCI-H226 and with COLO 205 was > 100 µM (inactive) each time. Moreover, the GI50 with NCI-H23, in the assay with SF-268, in the assay with UACC-62, with HL-60, in the assay with SW-620 and in the assay on MCF7 was > 100 µM (inactive) each time. For the same compound, the GI50 in the assay on PC-3, in the assay on HCC 2998, in the assay on OVCAR-8, with A498, with SK-MEL-2 and in the assay with KM12 was > 100 µM (inactive) throughout. Also, the GI50 in the assay on SF-539 was > 100 µM (inactive).
As for `O=C(C=P(c1ccccc1)(c1ccccc1)c1ccccc1)C12CC3CC(CC(C3)C1)C2`, the GI50 was 16.7 µM (inactive) in the assay with A549; 16.5 µM (inactive) with NCI/ADR-RES; 16.5 µM (inactive) in the assay with Hs-578T; 14.6 µM (inactive) with UO-31; 11.9 µM (inactive) in the assay with COLO 205; 16.7 µM (inactive) with NCI-H23. Also, the GI50 was 20.8 µM (inactive) in the assay with SF-268; 14.7 µM (inactive) in the assay with UACC-62; 8.75 µM (inactive) in the assay with HL-60; 16.1 µM (inactive) in the assay on SW-620; 17 µM (inactive) in the assay with MCF7; 11.7 µM (inactive) in the assay with PC-3. Also, the GI50 in the assay on HCC 2998 was 16.8 µM (inactive); with OVCAR-8, 17.7 µM (inactive); with HOP-92, 20.5 µM (inactive); in the assay with A498 it was 18.8 µM (inactive); with SK-MEL-2, 15.8 µM (inactive); in the assay on KM12, 15 µM (inactive). Moreover, the GI50 with SF-539 was 20 µM (inactive).
With `CN(C)/C=N/S(=O)(=O)c1nn2c(C=O)c(-c3ccc(Cl)cc3)nc2s1`, the GI50 with A549 is 8.26 µM (inactive); with NCI/ADR-RES it was 2.22 µM (inactive); with Hs-578T it was 3.43 µM (inactive); in the assay on UO-31, 1.02 µM (active); in the assay with NCI-H226, 4.25 µM (inactive); in the assay with COLO 205, 1.28 µM (inactive). Moreover, the GI50 in the assay with NCI-H23 was 2.34 µM (inactive); in the assay with SF-268 it was 3.46 µM (inactive); in the assay with UACC-62, 3.91 µM (inactive); in the assay on SW-620 it was 0.444 µM (active); in the assay on MCF7, 0.897 µM (active); with PC-3, 2.46 µM (inactive). The GI50 is 5.25 µM (inactive) in the assay with HCC 2998; 1.31 µM (inactive) with OVCAR-8; 2.34 µM (inactive) in the assay with HOP-92; 16.2 µM (inactive) in the assay on A498; 7.11 µM (inactive) in the assay on SK-MEL-2; 3.63 µM (inactive) in the assay on KM12. Besides, the GI50 in the assay with SF-539 was 2.13 µM (inactive).
On to `Cc1cc(O)c2c3c(ccc2c1)C(=O)c1c(O)cccc1C3=O` [TETRANGULOL], for which the GI50 was 5.14 µM (inactive) in the assay with A549; 5.97 µM (inactive) in the assay on NCI/ADR-RES; > 40.9 µM (inactive) with Hs-578T; > 100 µM (inactive) in the assay on UO-31; 3.25 µM (inactive) with COLO 205; 3.98 µM (inactive) in the assay on NCI-H23. In addition, the GI50 is 5.66 µM (inactive) in the assay on SF-268; 1.55 µM (inactive) in the assay with UACC-62; 0.692 µM (active) in the assay on HL-60; 3.3 µM (inactive) in the assay with MCF7; 16.1 µM (inactive) with PC-3; 5.15 µM (inactive) with HCC 2998. The GI50 is 9.68 µM (inactive) with OVCAR-8; > 100 µM (inactive) in the assay with HOP-92; > 100 µM (inactive) in the assay with A498; 10.3 µM (inactive) with SK-MEL-2; 3.88 µM (inactive) with KM12; 7.64 µM (inactive) with SF-539.
Consider `C[N+](C)(C)C1(C(=O)[O-])CC1`, for which the GI50 in the assay on A549, in the assay with NCI/ADR-RES, with Hs-578T, in the assay on NCI-H226, in the assay with NCI-H23 and in the assay with SF-268 was > 100 µM (inactive) each time. The GI50 in the assay with HL-60, in the assay on SW-620, in the assay on MCF7, with PC-3, with HCC 2998 and in the assay on OVCAR-8 was > 100 µM (inactive) each time. Further, the GI50 with HOP-92, in the assay on A498 and in the assay with SF-539 was > 100 µM (inactive) throughout.
In the case of `Cc1nnc(CC#N)n1NC(=O)CC#N`, the GI50 in the assay on A549, in the assay with NCI/ADR-RES, in the assay on Hs-578T, in the assay on UO-31, in the assay with COLO 205 and in the assay with NCI-H23 was > 100 µM (inactive) throughout. Besides, the GI50 in the assay with SF-268, in the assay with UACC-62, in the assay on HL-60, with SW-620, with MCF7 and with PC-3 was > 100 µM (inactive) in each case. In addition, the GI50 with HCC 2998, in the assay on OVCAR-8, in the assay on HOP-92, in the assay with A498, in the assay with SK-MEL-2 and with KM12 was > 100 µM (inactive) throughout. Further, in the assay on SF-539, the GI50 is > 100 µM (inactive).
As for `Cn1c2ccccc2c(=S)c2ccccc21`, the GI50 in the assay on A549, with NCI/ADR-RES, in the assay with Hs-578T, with UO-31, with NCI-H226 and with COLO 205 was > 100 µM (inactive) in each case. The GI50 in the assay with NCI-H23, in the assay with SF-268, in the assay with UACC-62, in the assay with SW-620, in the assay with MCF7 and with PC-3 was > 100 µM (inactive) throughout. Also, the GI50 in the assay with HCC 2998, in the assay with OVCAR-8, in the assay with HOP-92, in the assay with A498, with SK-MEL-2 and in the assay on KM12 was > 100 µM (inactive) throughout. In addition, the GI50 with SF-539 is > 100 µM (inactive).
In the case of `Nc1nc(NNc2ccccc2F)cc(=O)[nH]1`, the GI50 is > 100 µM (inactive) in the assay with A549; > 100 µM (inactive) in the assay on NCI/ADR-RES; > 100 µM (inactive) in the assay on Hs-578T; > 100 µM (inactive) in the assay on UO-31; > 100 µM (inactive) in the assay with NCI-H226; 97.1 µM (inactive) in the assay on COLO 205. Besides, the GI50 in the assay with HL-60 was 56.8 µM (inactive); in the assay on SW-620, > 100 µM (inactive); in the assay with MCF7, > 100 µM (inactive); in the assay with PC-3 it was > 100 µM (inactive); with HCC 2998 it was > 100 µM (inactive); with OVCAR-8, > 100 µM (inactive). The GI50 in the assay with A498, with KM12 and in the assay on SF-539 was > 100 µM (inactive) in each case.
Consider `CN(C)c1cccc(-c2cc(=S)c3cc4c(cc3[nH]2)OCO4)c1`, for which the GI50 is 4.85 µM (inactive) with A549; 3.94 µM (inactive) in the assay on NCI/ADR-RES; 4.28 µM (inactive) in the assay on Hs-578T; 18.4 µM (inactive) with UO-31; 5.7 µM (inactive) in the assay on NCI-H226; 14.8 µM (inactive) with COLO 205. Also, the GI50 in the assay with NCI-H23 was 5.62 µM (inactive); in the assay with SF-268, > 61.2 µM (inactive); in the assay with UACC-62, 6.27 µM (inactive); in the assay with SW-620, 5.15 µM (inactive); with MCF7 it was 4.94 µM (inactive); in the assay with PC-3 it was 3.61 µM (inactive). Besides, the GI50 in the assay with HCC 2998 was 7.89 µM (inactive); in the assay with OVCAR-8, 6.43 µM (inactive); with HOP-92 it was > 100 µM (inactive); with A498 it was > 100 µM (inactive); in the assay on SK-MEL-2, 24.4 µM (inactive); in the assay on KM12, 5.13 µM (inactive). In the assay with SF-539, the GI50 is 4.27 µM (inactive).
For the compound `CCOC(=O)CNC(=O)C(Cc1ccccc1)NC(=O)OCc1ccccc1` (stereo not drawn) (Cbz-[ξF]-Gly-OEt), the GI50 with A549 is > 100 µM (inactive); with NCI/ADR-RES, > 100 µM (inactive); in the assay with Hs-578T, 70.8 µM (inactive); in the assay on UO-31 it was > 100 µM (inactive); in the assay with NCI-H226, > 100 µM (inactive); in the assay with COLO 205 it was > 100 µM (inactive). Further, the GI50 in the assay on NCI-H23, in the assay on SF-268, in the assay with HL-60, with SW-620, in the assay with MCF7 and in the assay on PC-3 was > 100 µM (inactive) each time. The GI50 in the assay with HCC 2998 is > 100 µM (inactive); in the assay on OVCAR-8 it was > 100 µM (inactive); with HOP-92, > 100 µM (inactive); in the assay on A498 it was 53.8 µM (inactive); in the assay on KM12, > 100 µM (inactive).
For the compound `O=C1C(Cl)=C(Oc2ccc([N+](=O)[O-])cc2)C(=O)c2c(O)ccc(O)c21`, the GI50 in the assay with A549 is > 100 µM (inactive); with NCI/ADR-RES, > 100 µM (inactive); in the assay on Hs-578T, > 100 µM (inactive); with UO-31, > 100 µM (inactive); in the assay on NCI-H226 it was > 100 µM (inactive); in the assay on COLO 205 it was 19.9 µM (inactive). The GI50 in the assay on NCI-H23 is > 57.9 µM (inactive); with SF-268 it was > 61.8 µM (inactive); in the assay on UACC-62, > 63.7 µM (inactive); in the assay with HL-60 it was 4.65 µM (inactive); in the assay with SW-620, 30.2 µM (inactive); in the assay with MCF7, 46.1 µM (inactive). Further, the GI50 is > 100 µM (inactive) with PC-3; > 100 µM (inactive) in the assay on HCC 2998; > 100 µM (inactive) with OVCAR-8; 28.3 µM (inactive) in the assay on HOP-92; > 100 µM (inactive) in the assay on A498; > 100 µM (inactive) in the assay with KM12. Also, in the assay on SF-539, the GI50 is > 100 µM (inactive).
